The numbers were not newly measured in publication PMC8160438, “A Novel Heptapeptide, GPPGPAG Transfers to the Brain, and Ameliorates Memory Dysfunction and Dendritic Atrophy in Alzheimer’s Disease Model Mice” (Frontiers in Pharmacology, 2021), which cites them from elsewhere.

For the data set the following is noted: in vivo, cited from earlier work. How it is done:
In Figure 6H, the mean value of GPPGPAG in the cerebral cortex is 2.748 μg/g of tissue at 180 min after p.o. administration of 500 mg/mouse. When 10 mg/kg GPPGPAG is applied per orally, the transferred amount of GPPGPAG in the brain is calculated as 0.598 pmol. […] Identification of the BBB transporting system for GPPGPAG should be done in future.

In the case of Gly-Pro, the transport into brain entry is recorded as “transported into brain”.
In the case of “RPRTRLHTHRNR-NH2 [12-amino acid peptide that crosses the blood-brain barrier]”, the “crossing of the blood-brain barrier” value (po) is recorded as “crosses the blood-brain barrier (BBB) without digestion”.
Tyr-Pro: the transport into brain result is on record as “transported into brain”.
